Reference: patent publication US20220296595A1, “CDK INHIBITORS” (QILU REGOR THERAPEUTICS INC., priority 2019, published 2022)
Read-outs that look alike come from different tables or passages of the source.

Key:
[1] = test system: phosphorylation of Retinoblastoma Protein (pRb Ser807/811 or Ser780) in T47D cells; test: Inhibition of phosphorylation of retinoblastoma protein (pRb) in T47D cell (ELISA); format: cell-based, human; settings: Homo sapiens, T47D, read-out: Phospho T47D Ser807 IC50, pRb Ser807 phosphorylation, T47D cells
Outline: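 T47D cells in RPMI 1640 + 10% FBS, adhered overnight, then treated 24 h with 3-fold compound titrations (top concentration […]). Lysates assayed by sandwich ELISA for pRb Ser807/811 or Ser780 with HRP/TMB detection. IC50 from 4-parameter sigmoidal fit.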

CDK4/CyclinD1 = molecular target: T1, CDK4/CyclinD1 (Homo sapiens, UniProt P11802); test: Assay for inhibition of CDK4/CyclinD1 (Caliper microfluidic kinase assay); format: biochemical
T1 construct: purchased Thermofisher PR8064A
Outline: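 IC50 was obtained by 4-parameter sigmoidal fitting after 1 nM CDK4/CyclinD1, 200 μM ATP and 1 μM FL-34 substrate reacted for 3 h at room temperature (pH 7.5 HEPES, 10 mM MgCl2). After EDTA quench, substrate and product were separated and detected on a Caliper microfluidic chip.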

CDK6/CyclinD3 = molecular target: T2, CDK6/CyclinD3 (Homo sapiens, UniProt Q00534); test: Assay for inhibition of CDK6/CyclinD3 (Caliper microfluidic kinase assay); format: biochemical
T2 construct: purchased Carna 04-107
Outline: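 IC50s came from four-parameter dose-response fits of microfluidic substrate/product separation data. Reactions held 2 nM CDK6/CyclinD3, 300 μM ATP and 1 μM 5-FAM peptide FL-34 in pH 7.5 HEPES/MgCl2 buffer, ran 3 hours at room temperature, then were quenched with EDTA.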

CDK2/CyclinE1 = molecular target: T3, CDK2/CyclinE1 (Homo sapiens, UniProt P24941); test: Assay for inhibition of CDK2/CyclinE1 (Caliper microfluidic kinase assay); format: biochemical; settings: read-out: CDK2 IC50
T3 construct: purchased SignalChem C29-18G
Outline: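 IC50 came from 4-parameter fits of substrate-to-product conversion, separated on a Caliper chip after an EDTA stop. Reactions ran 3 hours at room temperature with 100 μM ATP, 5 μM fluorescent FL-18 peptide and 5 nM enzyme in 100 mM HEPES pH 7.5, 10 mM MgCl2.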

T47D breast cancer cells = test: Anti-proliferation assay in T47D cell (Cyquant, day 6); format: cell-based, human; settings: Homo sapiens, T47D, anti-proliferation, T47D cells; read-out: T47D IC50
Outline: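 A ten-point, 3-fold compound series (10 μM down to 0.51 nM) was applied to overnight-settled cells in 10% FBS RPMI 1640, and DNA content was read by CyQuant fluorescence 6 days later. An untreated plate read before dosing served as baseline for subtraction before IC50 fitting.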

T2 sequence (Q00534 whole entry): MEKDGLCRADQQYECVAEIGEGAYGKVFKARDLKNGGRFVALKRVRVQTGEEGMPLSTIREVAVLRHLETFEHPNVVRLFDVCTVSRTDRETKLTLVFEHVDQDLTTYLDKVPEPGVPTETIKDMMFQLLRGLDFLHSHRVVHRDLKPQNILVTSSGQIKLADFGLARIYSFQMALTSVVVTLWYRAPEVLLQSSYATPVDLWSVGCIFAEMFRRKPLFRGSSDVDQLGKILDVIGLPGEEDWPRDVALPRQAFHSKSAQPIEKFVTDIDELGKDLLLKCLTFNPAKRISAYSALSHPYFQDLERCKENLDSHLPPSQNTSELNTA
T2 sequence (P30281 whole entry partner): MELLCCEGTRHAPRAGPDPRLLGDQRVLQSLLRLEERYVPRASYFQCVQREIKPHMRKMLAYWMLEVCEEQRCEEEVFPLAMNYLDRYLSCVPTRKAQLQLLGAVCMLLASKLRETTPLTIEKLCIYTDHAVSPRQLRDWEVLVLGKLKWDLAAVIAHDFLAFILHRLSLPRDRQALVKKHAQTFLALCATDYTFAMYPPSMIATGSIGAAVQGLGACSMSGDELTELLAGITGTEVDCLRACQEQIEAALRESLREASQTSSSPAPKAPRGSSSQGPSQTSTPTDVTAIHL
T1 sequence (P11802 whole entry): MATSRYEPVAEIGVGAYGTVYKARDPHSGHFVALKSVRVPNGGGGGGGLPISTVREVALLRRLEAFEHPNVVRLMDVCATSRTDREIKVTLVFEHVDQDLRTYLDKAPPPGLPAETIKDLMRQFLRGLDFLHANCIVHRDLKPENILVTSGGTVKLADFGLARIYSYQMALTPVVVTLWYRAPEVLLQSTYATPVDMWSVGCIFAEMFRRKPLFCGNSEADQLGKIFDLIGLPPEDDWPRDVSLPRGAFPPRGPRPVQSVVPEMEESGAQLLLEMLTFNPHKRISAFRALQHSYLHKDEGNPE
T1 sequence (P24385 whole entry partner): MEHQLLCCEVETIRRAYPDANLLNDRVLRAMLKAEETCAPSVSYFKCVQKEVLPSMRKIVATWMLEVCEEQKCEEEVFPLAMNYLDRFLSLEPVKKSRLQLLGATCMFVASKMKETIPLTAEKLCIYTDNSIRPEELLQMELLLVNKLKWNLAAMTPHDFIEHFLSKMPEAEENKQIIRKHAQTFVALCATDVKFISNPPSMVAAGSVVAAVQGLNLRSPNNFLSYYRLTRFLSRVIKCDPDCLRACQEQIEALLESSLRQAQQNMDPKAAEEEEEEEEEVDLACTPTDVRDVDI

| SMILES | IC50 [1] [nM] | IC50 (CDK4/CyclinD1; CDK4/CyclinD1, 200 μM ATP) [nM] | IC50 (CDK6/CyclinD3; CDK6/CyclinD3, 300 μM ATP) [nM] | IC50 (CDK2/CyclinE1; CDK2/CyclinE1, 100 μM ATP) [nM] | IC50 (T47D breast cancer cells) [nM] | IC50 (CDK4/CyclinD1; CDK4/CyclinD1) [nM] | IC50 (CDK6/CyclinD3; CDK6/CyclinD3) [nM] | IC50 (CDK2/CyclinE1; CDK2/CyclinE1) [nM] |
| --- | --- | --- | --- | --- | --- | --- | --- | --- |
| CNC1CCN(c2ccc(Nc3nccc(-c4ccn5ncc(C(C)C)c5c4)n3)nc2)C(=O)C1 (centres unmarked) [Synthetic Example 204, 1-[6-[[4-(3-isopropylpyrazolo[1,5-a]pyridin-5-yl)pyrimidin-2-yl]amino]-3-pyridyl]-4-(methylamino)piperidin-2-one] | < 100 | < 10 | < 10 | < 10 | < 100 |  |  |  |
| CC(C)c1cnn2ccc(-c3nc(Nc4ccc(S(N)(=O)=O)cc4)ncc3F)cc12 [compound 27] | 100 to 500 | 10 to 100 | 100 to 1000 | < 10 | < 100 |  |  |  |
| CC(C)c1cnn2ccc(-c3ccnc(Nc4ccc(N5CCCNC5=O)cn4)n3)cc12 [Synthetic Example 1] | < 100 | < 10 | 10 to 100 | 100 to 1000 | < 100 |  |  |  |
| CCN1CCN(c2ccc(Nc3ncc(F)c(-c4ccn5ncc(C(C)C)c5c4)n3)nc2)C(=O)C1 [compound 48] | < 100 | < 10 | 10 to 100 | 10 to 100 | < 100 |  |  |  |
| CCN1CCC(=O)N(c2ccc(Nc3ncc(F)c(-c4ccn5ncc(C(C)C)c5c4)n3)nc2)CC1 [compound 47] | < 100 | < 10 | 10 to 100 | 10 to 100 | < 100 |  |  |  |
| CCN1CCC(Cn2ccc(Nc3ncc(F)c(-c4ccn5ncc(C(C)C)c5c4)n3)cc2=O)CC1 [compound 44] | 500 to 1000 | < 10 | 10 to 100 | 100 to 1000 | > 1000 |  |  |  |
| CCN(CC)C1CCN(c2ccc(Nc3nccc(-c4ccn5ncc(C(C)C)c5c4)n3)nc2)C(=O)C1 (centres unmarked) [compound 176] | < 100 | < 10 | 10 to 100 | 10 to 100 | < 100 |  |  |  |
| CCN1CCN(c2ccc(Nc3ncc(F)c(-c4cc5c(ncn5C(C)C)c(OC)n4)n3)nc2)C(=O)C1 [compound 132] | < 100 | < 10 | 10 to 100 | > 1000 | 100 to 500 |  |  |  |
| CC(C)c1cnn2ccc(-c3ccnc(Nc4ccc(N5CCC(N(C)C)CC5=O)cc4)n3)cc12 (centres unmarked) [compound 172] | < 100 | < 10 | < 10 | < 10 | < 100 |  |  |  |
| CC(C)c1cnn2ccc(-c3nc(Nc4ccc(N5CCCNCC5=O)cn4)ncc3F)cc12 [compound 33] | < 100 | < 10 | 10 to 100 | 10 to 100 | < 100 |  |  |  |
| CC(C)c1cnn2ccc(-c3ccnc(Nc4ccc(N5CC(N(C)C)CCC5=O)cn4)n3)cc12 (centres unmarked) [compound 156] | < 100 | 10 to 100 | 100 to 1000 | 10 to 100 | 100 to 500 |  |  |  |
| CNC(=O)c1ccc(Nc2nccc(-c3ccn4ncc(C(C)C)c4c3)n2)cc1 [compound 166] | < 100 | < 10 | 10 to 100 | < 10 | < 100 |  |  |  |
| CCN1CCN(c2ccc(Nc3nccc(-c4ccn5ncc(C(C)C)c5c4)n3)nc2)C(=O)C1 [compound 235] | < 100 | < 10 | 10 to 100 | 10 to 100 | < 100 |  |  |  |
| CC(C)c1cnn2ccc(-c3nc(Nc4ccc(N5CCN(C)CCC5=O)cn4)ncc3F)cc12 [compound 46] | < 100 | < 10 | 10 to 100 | 10 to 100 | < 100 |  |  |  |
| CC(C)c1cnn2ccc(-c3ccnc(Nc4ccc(C(=O)N5CCC(NC6CC6)C5)cc4)n3)cc12 (centres unmarked) [compound 191] | < 100 | < 10 | 10 to 100 | < 10 | < 100 |  |  |  |
| COc1nc(-c2ccnc(Nc3ccc(C(=O)N4CCC(NC5CC5)C4)cc3)n2)cc2c1ncn2C(C)C (centres unmarked) [compound 80] | < 100 |  |  |  | 100 to 500 | < 10 | 10 to 100 | < 10 |
